Values quoted from earlier work, collected in publication PMC6467724 (Journal of medicinal chemistry, 2018).

What was measured:
[1] = mice, 40 mg/kg oral dose; cited from earlier work
[2] = cited from earlier work

CC[C@@H]([C@H](C)O)n1ncn(-c2ccc(N3CCN(c4ccc(OC[C@@H]5CO[C@@](Cn6cncn6)(c6ccc(F)cc6F)C5)cc4)CC3)cc2)c1=O [posaconazole]
Maximal reported plasma concentration [1]: 6 µM
Maximal concentration detected in humans, fold lower than in mice [2]: 5 to 10 fold
